Measurements taken from PMC9295807 (2022).

Experiments:
Test in all cases: in-line probing
[1] = system: 92 allB (RNA, riboswitch) GGCAGAAUAAGCUCUUGUAUAAGCUCAUUAAUCCGGUUUGAGCGUUUCGACCAGGCGACCGUAAAUUGCCCCAGGCUACAAGAGGUGCAGGAAA; details: 100 mM K+, 20 mM Mg2+, 100 mM Tris-HCl pH 8.3, room temperature, ~40 h
[2] = system: 92 PRT (RNA, riboswitch) GGAAUCAAACAUCUCUUGUAUAAGCUCGUUAAUUUGGAAUGAGCGUAUCUACAGGCAACCGUAAAUUGCCCCAGGCUACAAGAGGCCAGACAAG; details: 100 mM K+, 20 mM Mg2+
[3] = system: 94 nuc (RNA, riboswitch) GGAAAAAAAAUUAUUUUUCGUAUAUCCUUAAUGAUAUGGUUUAAGGGCAAUACAUAGAAACCACAAAUUUCUUACUGCGAAAAAUAUGCUUCUUUA; details: 100 mM K+, 20 mM Mg2+; 100 mM Tris-HCl pH 8.3, room temperature, ~40 h

## O=c1[nH]c(=O)c2[nH]cnc2[nH]1
[1]
  KD: ~ 36.5 µM
[2]; 100 mM Tris-HCl pH 8.3, room temperature, ~40 h, 100 µM compound
  binding: no

## Nc1nc2c(ncn2[C@H]2C[C@H](O)[C@@H](CO)O2)c(=O)[nH]1
[3]
  KD: ~ 1.5 μM

## Nc1nc2[nH]cnc2c(=O)[nH]1
[1]; 100 µM compound
  binding: no
[2]
  KD: < 8.3 nM
